# Data as given in patent publication US8883739B2, “Osteocalcin as a treatment for male reproductive disorders” (The Trustees of Columbia University in the City of New York, priority 2010, dated 2014).
# Where no end group is shown, it is not given here.
# What was measured:
# WT mice [1] = experiment: Daily osteocalcin injections in WT mice for 12 weeks; assay type: in vivo, mouse
# Description: WT mice (n=6) were injected daily with either 3 ng/g or 30 ng/g of uncarboxylated osteocalcin for 12 weeks. […] Likewise, serum testosterone levels were increased in osteocalcin-injected mice compared to vehicle-injected mice (FIG. 7D).
# (§1) Caudal epididymides were minced in 1 ml PBS and the number of cells released counted after 1 hour. The total sperm count was assessed in the final suspension by using a hemacytometer (Dakhova et al., 2009, Endocrinology 150:404-412). Circulating levels of testosterone, estradiol (E2), and progesterone were measured by radioimmunoassay (RIA) from Diagnostic Systems Laboratories (Testosterone RIA DSL-4000, Estradiol RIA DSL-43100, and Progesterone RIA-3900).
# One testis or ovary from each mouse was randomly selected for molecular analysis and the other one was used for histology. Specimens were collected, weighed, and fixed in Bouin's fixative for histological analyses before being dehydrated through graded ethanol, processed for paraffin embedding, and serially sectioned at 5 μm. For histological analysis, sections of testes and ovaries were stained with periodic acid-Schiff and counterstained with hematoxylin. TUNEL labeling was performed using the ApopTag Peroxydase In Situ Apoptosis detection kit (Millipore-57100). Apoptotic indices were determined by counting the total number of TUNEL-positive cells or the number of TUNEL positive spermatocytes for all stage tubules. Approximately 500 tubules were counted on at least 4 cross-sections located at midtestis for each animal.
# primary Leydig cells [2] = experiment: Osteocalcin stimulation of primary Leydig cells, testosterone RIA; assay type: cell-based, mouse; conditions: increasing amounts of osteocalcin (0-100 ng/ml)
# Description: (§2) Adult mouse Leydig cells were isolated by mechanical dissociation of the testes followed by purification on a 0-90% Percoll gradient (Hunter et al., 1982, Mol. Cell. Endocrinol. 25:35-47; Schumacher et al., 1978, FEBS Lett. 91:333-338). Primary Leydig cells were cultured in Minimal Essential Medium (MEM+GlutaMAX, Invitrogen) supplemented with 1× PenStrep, 25 mM HEPES, pH 7.4 and 0.07% BSA at 33° C. in 5% CO2. After 3 hours of attaching and starvation, cells were washed once with culture medium and then used for experiments. The preparation of testis explants was adapted from Powlin et al., 1998, Toxicol. Sci. 46:61-74. Explants were washed 3 times with PBS 1× and placed in serum free RPMI medium for 2 hours before being used for experiments.
# (§3) After 1 hour, an aliquot of medium was collected for measurements of testosterone. Cells were then maintained for 3 additional hours and lysed in 1 ml TRIZOL® (Invitrogen) for RNA isolation.
# as §1
# Leydig cell cultures = experiment: Expression of testosterone biosynthesis enzymes in Leydig cell cultures treated with uncarboxylated osteocalcin; assay type: cell-based, mouse; conditions: qPCR
# Description: as §2, §3
# (§4) RNA was purified from tissues, primary Leydig cells, or cultured cells using TRIZOL® (Invitrogen). RNA isolation, cDNA preparation, and qPCR analysis was carried out following standard protocols. qPCR analyses were performed using specific quantitative PCR primers from SABiosciences.
# TM3 Leydig cells [3] = experiment: cAMP quantification in Leydig cells; assay type: cell-based, mouse; conditions: 30 minutes, 0.5 mM IBMX
# Description: For cAMP measurements, TM3 Leydig cells were plated in 6 cm dishes (10^7 cells per dish) a day before experiment. Cells were serum starved for 16 hours (in the presence of 0.1% BSA) then pre-incubated in the presence of 0.5 mM IBMX for 30 minutes and stimulated with the indicated concentration of osteocalcin (also in the presence of 0.5 mM IBMX) for 30 minutes. cAMP concentration was measured with the Parameter cAMP kit (R&D Systems, KGE002).
# testis explants = experiment: Osteocalcin stimulation of testis explants, testosterone RIA; assay type: cell-based, mouse; conditions: increasing amounts of osteocalcin (0-100 ng/ml)
# Description: as §2, §3, §1
# TM3 Leydig cells [4] = experiment: qPCR of steroidogenic genes in TM3 Leydig cells treated with osteocalcin; assay type: cell-based, mouse; conditions: osteocalcin 0.3 to 300 ng/ml, 2 hours
# Description: TM3 cells were treated with increasing amounts of osteocalcin and assayed for the expression of genes encoding enzymes of the steroidogenic cascade. […] Thus, whether looked at by in vivo or cell-based assays, osteocalcin promotes testosterone biosynthesis.
# Gene expression analyses were performed using real time PCR. DNAse I-treated total RNA was converted to cDNA with the SuperScript III kit (Invitrogen). Real-time PCR were performed using the Taq SYBR Green Supermix with ROX (Biorad) on an MX3000 instrument (Stratagene); beta-actin amplification was used as an internal reference for each sample. All primers were from SuperArray.
# as §4
# primary Leydig cells [5] = experiment: Measurement of intracellular calcium in primary Leydig cells; assay type: cell-based, mouse
# Description: Isolated primary Leydig cells were resuspended in buffer containing 95 mM NaCl, 4.8 mM KCl, 1.2 mM MgSO4, 1.2 mM KH2PO4, 5.6 mM glucose, 25 mM NaHCO3, 1.7 mM CaCl2, 0.25 mM sodium purivate, 1× PenStrep, 20 mM HEPES, 0.3% BSA, pH 7.4 at 37° C. (reagents from Sigma Aldrich, except for sodium pyruvate, PenStrep and HEPES from Invitrogen), plated at the density of 17-25000 cells/well on 96-well plate and placed in an incubator at 33° C., 5% CO2 for 2 hours. Afterward, the FLIPR dye (Calcium Plus Assay Kit Dye, Molecular Devices) diluted in the same buffer supplemented with 2.5 mM probenecid, pH 7.4 was exchanged for the previous medium and incubated with the cells for an additional 30-45 minutes. Following the incubation with the dye, cells were placed in a BD Pathway 855 High-Content Bioimager, recorded for 10-20 seconds to get baseline fluorescence, and then stimulated with doses of osteocalcin ranging from 0.3 to 500 ng/ml as well as control substances: medium, calcium ionophore A23187, 10% FBS, 400 μM Arginine^2+, 100 μM ATP/UTP mix and recorded for an additional 2-5 minutes. The probing time was varied between 1 and 5 seconds. Obtained images were analyzed for the change in fluorescence using ImageJ 1.41.
# TM3 Leydig cells [6] = experiment: ERK1/2 phosphorylation Western blot of Leydig cells; assay type: cell-based, mouse
# Description: (§5) Western blotting was performed according to standard procedures. Frozen testes were homogenized and lysed with 1×RIPA buffer. Membranes were blocked and then incubated overnight with primary antibody in TBST-5% BSA, followed by incubation with appropriate HRP-conjugated secondary antibody. Signals were visualized with ECL. The following primary antibodies were used: anti-phospho-tyrosin (9416), anti-pERK1/2 (4370), anti-ERK1/2 (9102), anti-pCREB (9198), anti-CREB (4820), anti-Cleaved Caspase-3 (Asp175) (9661) (all from Cell Signaling), and anti-tACE (H-300): sc-13973 and anti-CHD5 (H-185): sc-68390 from Santa Cruz; the anti-osteocalcin was described in Ferron et al., 2010, Biochem. Biophys. Res. Comm. 397:691-696.
# WT mice [7] = experiment: Circulating testosterone after osteocalcin injection in WT mice; assay type: in vivo, mouse; conditions: injection 3 ng/g of body weight, 1, 4 and 8 hours
# Description: as §1
# GPRC6a = target: T1, GPRC6a (Mus musculus, UniProt Q8K4Z6); experiment: Receptor binding assay with biotinylated osteocalcin on testis sections
# T1 construct: testes from 8-week old mice were snap frozen in liquid nitrogen and 20 μm thick sections were prepared; from tissue; host or cells: mouse testis sections (Leydig cells), 8-week old mice
# T1 sequence (Q8K4Z6 21-928): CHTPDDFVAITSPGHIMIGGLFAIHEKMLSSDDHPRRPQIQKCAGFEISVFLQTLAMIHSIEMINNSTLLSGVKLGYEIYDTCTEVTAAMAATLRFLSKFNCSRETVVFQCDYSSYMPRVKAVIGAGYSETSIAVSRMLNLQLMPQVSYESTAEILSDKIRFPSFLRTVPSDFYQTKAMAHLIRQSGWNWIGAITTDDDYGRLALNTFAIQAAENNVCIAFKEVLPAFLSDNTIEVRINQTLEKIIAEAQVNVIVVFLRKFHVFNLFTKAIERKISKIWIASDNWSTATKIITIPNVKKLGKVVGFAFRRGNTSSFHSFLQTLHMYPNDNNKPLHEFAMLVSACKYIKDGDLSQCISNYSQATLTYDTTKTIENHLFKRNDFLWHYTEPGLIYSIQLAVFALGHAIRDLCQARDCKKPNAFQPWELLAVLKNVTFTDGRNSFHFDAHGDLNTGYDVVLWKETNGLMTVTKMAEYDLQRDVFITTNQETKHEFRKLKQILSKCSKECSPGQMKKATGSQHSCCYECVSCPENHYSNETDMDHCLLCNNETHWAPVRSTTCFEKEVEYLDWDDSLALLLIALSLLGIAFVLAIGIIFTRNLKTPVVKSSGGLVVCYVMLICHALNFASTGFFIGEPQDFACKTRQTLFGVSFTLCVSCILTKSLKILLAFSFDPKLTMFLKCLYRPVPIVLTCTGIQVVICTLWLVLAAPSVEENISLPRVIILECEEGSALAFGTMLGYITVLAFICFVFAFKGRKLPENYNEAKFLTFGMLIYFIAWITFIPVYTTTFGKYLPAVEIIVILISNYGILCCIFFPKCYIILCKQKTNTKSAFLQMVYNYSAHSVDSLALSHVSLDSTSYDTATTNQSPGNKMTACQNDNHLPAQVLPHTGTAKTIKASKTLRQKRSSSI
# Description: For binding studies, testes from 8-week old mice were snap frozen in liquid nitrogen and 20 μm thick sections were prepared and dessicated overnight at +4° C. under vacuum. On the following day, sections were rehydrated in ice-cold binding buffer (50 mM TrisHCl, pH 7.4, 10 mM MgCl2, 0.1 mM EDTA and 0.1% BSA) for 15 minutes and incubated for 1 hour in the presence of biotinylated osteocalcin. […] After 3 washes in cold PBS, sections were incubated for 1 hour in the detection system containing 0.1% BSA (ABC Elite, Vector Laboratories), washed again, and incubated with DAB peroxidase substrate kit (Vector Laboratories) according to the manufacturer's protocol. After a final wash, sections were mounted in water-based mounting medium. As negative controls, sections incubated with the detection system only (ABC Elite and DAB) or OstR−/− testis sections (Basura et al., 2008, Hear. Res. 244:45-50) were used.
# Leydig cells = experiment: CREB phosphorylation Western blot of Leydig cells; assay type: cell-based, mouse
# Description: as §5
# TM3 Leydig cells [8] = experiment: Anti-phospho-tyrosine Western blot of Leydig cells; assay type: cell-based, mouse; conditions: 1 minute
# Description: as §5
# GPCR6A = target: T2, GPCR6A (Mus musculus, UniProt Q8K4Z6); conditions: Christiansen et al., 2007; cited from earlier work
# T2 sequence (Q8K4Z6 21-928): T1 sequence (Q8K4Z6 21-928)
# [9] = WT mice, 3 ng/g or 30 ng/g daily for 12 weeks, both doses
compound,measurement,setting,value
"uncarboxylated osteocalcin: Recombinant osteocalcin bacterially produced as GST fusion, cleaved with thrombin; completely undercarboxylated at all three sites (YLGASVPSPDPLEPTREQCELNPACDELSDQYGLKTAYKRIYGITI)",serum testosterone levels,"WT mice [1]; WT mice injected daily, compared to vehicle-injected mice",increased
same,sperm cell apoptosis,WT mice [1]; [9],decreased
same,sperm count,WT mice [1]; [9],significantly increased
same,testis weight,WT mice [1]; [9],significantly increased
same,testosterone secretion,primary Leydig cells [2],dose-dependent increase
same,"expression of StAR, Cyp11a, Cyp17 and 3β-HSD",Leydig cell cultures,increased
same,cAMP production,TM3 Leydig cells [3]; listed as Osteocalcin,consistently induced
same,cAMP production,TM3 Leydig cells [3]; listed as osteocalcin,increased
same,testosterone secretion,testis explants,dose-dependent increase
same,"expression of StAR, Cyp11a and Cyp17",TM3 Leydig cells [4],specifically increased
same,intracellular calcium accumulation,primary Leydig cells [5],did not induce
same,ERK activation (ERK1/2 phosphorylation),TM3 Leydig cells [6]; listed as Osteocalcin,did not induce
same,ERK activation (ERK1/2 phosphorylation),TM3 Leydig cells [6]; listed as osteocalcin,absence of ERK1/2 phosphorylation
same,circulating levels of testosterone,WT mice [7],increased
same,competition of osteocalcin binding,"GPRC6a; excess (100 fold) of unlabeled competitor, WT testis sections",competed away
same,CREB phosphorylation,Leydig cells,favors
same,tyrosine phosphorylation,TM3 Leydig cells [8]; listed as Osteocalcin,did not induce
same,tyrosine phosphorylation,TM3 Leydig cells [8]; listed as osteocalcin,not in osteocalcin treated cells
NCCC[C@H](N)C(=O)O [ornithine],activation of GPCR6A,GPCR6A,activate
NCCCC[C@H](N)C(=O)O [lysine],activation of GPCR6A,GPCR6A,activate
"biotinylated osteocalcin: biotinylated osteocalcin used as a ligand in binding assays on mouse testes (YLGASVPSPDPLEPTREQCELNPACDELSDQYGLKTAYKRIYGITI; ends and bridges not checked; also: biotinylated, site not given here)",binding to GPRC6a-deficient testes,GPRC6a; GPRC6a-deficient testis sections,no binding was detected
same,binding to Leydig cells,GPRC6a; WT mouse testis sections,bound
N=C(N)NCCC[C@H](N)C(=O)O [arginine],activation of GPCR6A,GPCR6A,activate
